Structures can show the parent of a compound that is named as a salt. Where two headings read alike, the source gives them in different places.
Target: T1, BACE1 enzyme (soluble, truncated BACE enzyme, BACE1deltaTM96His) (Homo sapiens, UniProt P56817)
T1 construct: soluble, truncated BACE enzyme (BACE1deltaTM96His); His; made in house
Experiment: BACE1 Fluorescent Polarization (FP) Assay
Type: biochemical
Settings: geometric mean of 2-4 IC50 determinations unless footnoted (^2: 5-6 determinations; ^4: single determination)
Summary of the method: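 Soluble truncated His-tagged BACE1 (BACE1deltaTM96His, from CHO-K1 conditioned media; 0.1 nM final) with biotinylated Oregon green peptide substrate (150 nM final), in 100 mM sodium acetate pH 4.5, 0.001% Tween-20. Compounds in ½ log series from 100 μM top; 3 h at 37° C. Stopped with streptavidin; cleavage read as Δ mP fluorescence polarization (Ex485/Em530).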

[1] = 8-point curve, read-out: BACE activity, 8-point curve, IC50
[2] = 11-point curve, read-out: BACE activity, 11-point curve, IC50

T1 sequence (P56817 46-457): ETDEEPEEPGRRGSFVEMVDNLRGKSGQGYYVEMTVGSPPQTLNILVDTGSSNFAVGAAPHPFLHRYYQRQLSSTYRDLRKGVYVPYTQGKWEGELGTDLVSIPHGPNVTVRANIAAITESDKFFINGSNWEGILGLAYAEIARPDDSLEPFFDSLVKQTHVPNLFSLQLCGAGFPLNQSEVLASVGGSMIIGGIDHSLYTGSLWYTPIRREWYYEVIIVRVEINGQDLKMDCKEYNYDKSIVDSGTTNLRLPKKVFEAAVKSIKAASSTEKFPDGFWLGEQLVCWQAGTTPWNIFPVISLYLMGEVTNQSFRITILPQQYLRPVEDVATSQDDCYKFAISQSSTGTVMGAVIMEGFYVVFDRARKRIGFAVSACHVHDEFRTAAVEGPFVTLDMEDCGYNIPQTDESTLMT

| SMILES | IC50 [1] | IC50 [2] |
| --- | --- | --- |
| Cc1ccncc1-c1ncsc1CN1CC[C@]2(C=CS(=O)(=O)N2c2cccc(F)c2)C[C@@H]1C [Example 50, (5R,7S)-1-(3-fluorophenyl)-7-methyl-8-{[4-(4-methylpyridin-3-yl)-1,3-thiazol-5-yl]methyl}-2-thia-1,8-diazaspiro[4.5]dec-3-ene 2,2-dioxide, hydrochloride salt] | 7.18 µM | 25.6 µM |
| Cc1ncccc1-c1ocnc1CN1CC[C@]2(C=CS(=O)(=O)N2c2cccc(F)c2)C[C@@H]1C [Example 76, (5R,7S)-1-(3-fluorophenyl)-7-methyl-8-{[5-(2-methylpyridin-3-yl)-1,3-oxazol-4-yl]methyl}-2-thia-1,8-diazaspiro[4.5]dec-3-ene 2,2-dioxide] | 0.705 µM | 2.97 µM |
| C[C@H]1C[C@@]2(C=CS(=O)(=O)N2c2cccc(F)c2)CCN1Cc1ncoc1C1CCCOC1 (stereo partly drawn) [Example 79, (5R,7S)-1-(3-fluorophenyl)-7-methyl-8-{[5-(tetrahydro-2H-pyran-3-yl)-1,3-oxazol-4-yl]methyl}-2-thia-1,8-diazaspiro[4.5]dec-3-ene 2,2-dioxide] | 0.189 µM | 0.519 µM |
| C[C@H]1C[C@@]2(C=CS(=O)(=O)N2c2cccc(F)c2)CCN1Cc1ncoc1-c1cccs1 [Example 34, (5R,7S)-1-(3-fluorophenyl)-7-methyl-8-{[5-(2-thienyl)-1,3-oxazol-4-yl]methyl}-2-thia-1,8-diazaspiro[4.5]dec-3-ene 2,2-dioxide, hydrochloride salt] | – | 5.89 µM |
| CC(C)Oc1cccc(CN2CC[C@@]3(C[C@@H]2C)C(=O)C(C)(C)S(=O)(=O)N3c2cccc(F)c2)c1 [Example 64, (5R,7S)-1-(3-fluorophenyl)-8-(3-isopropoxybenzyl)-3,3,7-trimethyl-2-thia-1,8-diazaspiro[4.5]decan-4-one 2,2-dioxide, hydrochloride salt] | – | 25.7 µM |
| Cc1ncsc1-c1ocnc1CN1CC[C@]2(CCS(=O)(=O)N2c2cccc(F)c2)C[C@@H]1C [Example 59, (5R,7S)-1-(3-fluorophenyl)-7-methyl-8-{[5-(4-methyl-1,3-thiazol-5-yl)-1,3-oxazol-4-yt]methyl}-2-thia-1,8-diazaspiro[4.5]decane 2,2-dioxide, hydrochloride salt] | – | 8.82 µM |
| C[C@H]1C[C@]2(CCN1Cc1ccc(O)c(C3CCC3)c1)CCS(=O)(=O)N2c1cnccn1 [Example 87, 2-cyclobutyl-4-{[(5R,7S)-7-methyl-2,2-dioxido-1-(pyrazin-2-yl)-2-thia-1,8-diazaspiro[4.5]dec-8-yl]methyl}phenol] | – | 2.67 µM |
| C[C@H]1C[C@]2(CCN1Cc1ncoc1-c1cccs1)CCS(=O)(=O)N2c1cccc(F)c1 [Example 56, (5R,7S)-1-(3-fluorophenyl)-7-methyl-8-{[5-(2-thienyl)-1,3-oxazol-4-yl]methyl}-2-thia-1,8-diazaspiro[4.5]decane 2,2-dioxide, hydrochloride salt] | – | 15.4 µM |
| C[C@H]1C[C@@]2(C=CS(=O)(=O)N2c2cccc(F)c2)CCN1Cc1ncoc1C1CCCO1 (stereo partly drawn) [Example 70, (5R,7S)-1-(3-fluorophenyl)-7-methyl-8-{[5-(tetrahydrofuran-2-yl)-1,3-oxazol-4-yl]methyl}-2-thia-1,8-diazaspiro[4.5]dec-3-ene 2,2-dioxide] | 2.56 µM | 6.81 µM |
| C[C@H]1C[C@]2(CCN1Cc1ccc(O)c(C3CCCO3)c1)CCS(=O)(=O)N2c1cccc(F)c1 (mixture of isomers) [Example 61, 4-{[(5R,7S)-1-(3-fluorophenyl)-7-methyl-2,2-dioxido-2-thia-1,8-diazaspiro[4.5]dec-8-yl]methyl}-2-(tetrahydrofuran-2-yl)phenol] | < 0.0305 µM | – |
| C[C@H]1C[C@@]2(C=CS(=O)(=O)N2c2cccc(F)c2)CCN1Cc1scnc1-c1cccnc1 [Example 48, (5R,7S)-1-(3-fluorophenyl)-7-methyl-8-[(4-pyridin-3-yl-1,3-thiazol-5-yl)methyl]-2-thia-1,8-diazaspiro[4.5]dec-3-ene 2,2-dioxide] | 5.6 µM | 9.03 µM |
| C[C@H]1C[C@]2(CCN1Cc1ccc3[nH]ccc3c1)CCS(=O)(=O)N2c1cccc(F)c1 [Example 51, (5R,7S)-1-(3-fluorophenyl)-8-(1H-indol-5-ylmethyl)-7-methyl-2-thia-1,8-diazaspiro[4.5]decane 2,2-dioxide] | 2.08 µM | 5.64 µM |
| C[C@H]1C[C@@]2(C=CS(=O)(=O)N2c2cccc(F)c2)CCN1Cc1ccc(O)c(C2CCCC2)c1 [Example 7, 2-cyclopentyl-4-{[(5R,7S)-1-(3-fluorophenyl)-7-methyl-2,2-dioxido-2-thia-1,8-diazaspiro[4.5]dec-3-en-8-yl]methyl}phenol] | 0.0219 µM | – |
| CC(C)Cc1ocnc1CN1CC[C@]2(C=CS(=O)(=O)N2c2cccc(F)c2)C[C@@H]1C [Example 12, (5R,7S)-1-(3-fluorophenyl)-8-[(5-isobutyl-1,3-oxazol-4-yl)methyl]-7-methyl-2-thia-1,8-diazaspiro[4.5]dec-3-ene 2,2-dioxide] | 0.338 µM | – |
| Cc1ccsc1-c1ocnc1CN1CC[C@]2(C=CS(=O)(=O)N2c2cccc(F)c2)C[C@@H]1C [Example 37, (5R,7S)-1-(3-fluorophenyl)-7-methyl-8-{[5-(3-methyl-2-thienyl)-1,3-oxazol-4-yl]methyl}-2-thia-1,8-diazaspiro[4.5]dec-3-ene 2,2-dioxide] | 1.82 µM | 2.84 µM |
| Cc1ccsc1-c1cc(CN2CC[C@]3(C=CS(=O)(=O)N3c3cccc(F)c3)C[C@@H]2C)ccc1O [Example 5, 4-{[(5R,7S)-1-(3-fluorophenyl)-7-methyl-2,2-dioxido-2-thia-1,8-diazaspiro[4.5]dec-3-en-8-yl]methyl}-2-(3-methyl-2-thienyl)phenol, hydrochloride salt] | 0.000731 µM | – |
| C[C@H]1C[C@@]2(C=CS(=O)(=O)N2c2cccc(F)c2)CCN1Cc1ccc(O)c(OC(F)(F)F)c1 [Example 10, 4-{[(5R,7S)-1-(3-fluorophenyl)-7-methyl-2,2-dioxido-2-thia-1,8-diazaspiro[4.5]dec-3-en-8-yl]methyl}-2-(trifluoromethoxy)phenol, hydrochloride salt] | 0.181 µM | – |
| Cc1csnc1-c1cc(CN2CC[C@]3(CCS(=O)(=O)N3c3ccccn3)C[C@@H]2C)ccc1O [Example 91, 4-{[(5R,7S)-7-methyl-2,2-dioxido-1-(pyridin-2-yl)-2-thia-1,8-diazaspiro[4.5]dec-8-yl]methyl}-2-(4-methylisothiazol-3-yl)phenol] | – | 0.763 µM |
| Cc1ncsc1-c1ocnc1CN1CC[C@]2(C=CS(=O)(=O)N2c2cccc(F)c2)C[C@@H]1C [Example 36, (5R,7S)-1-(3-fluorophenyl)-7-methyl-8-{[5-(4-methyl-1,3-thiazol-5-yl)-1,3-oxazol-4-yl]methyl}-2-thia-1,8-diazaspiro[4.5]dec-3-ene 2,2-dioxide] | 2.51 µM | 6.29 µM |
| Cc1cncc(-c2ncsc2CN2CC[C@]3(C=CS(=O)(=O)N3c3cccc(F)c3)C[C@@H]2C)c1 [Example 49, (5R,7S)-1-(3-fluorophenyl)-7-methyl-8-{[4-(5-methylpyridin-3-yl)-1,3-thiazol-5-yl]methyl}-2-thia-1,8-diazaspiro[4.5]dec-3-ene 2,2-dioxide, hydrochloride salt] | 6.72 µM | 15.2 µM |
| C[C@H]1C[C@@]2(C=CS(=O)(=O)N2c2cccc(F)c2)CCN1Cc1scnc1CC1CCC1 [Example 19, (5R,7S)-8-{[4-(cyclobutylmethyl)-1,3-thiazol-5-yl]methyl}-1-(3-fluorophenyl)-7-methyl-2-thia-1,8-diazaspiro[4.5]dec-3-ene 2,2-dioxide] | 0.31 µM | – |
| Cc1ccsc1-c1ncsc1CN1CC[C@]2(C=CS(=O)(=O)N2c2cccc(F)c2)C[C@@H]1C [Example 45, (5R,7S)-1-(3-fluorophenyl)-7-methyl-8-{[4-(3-methyl-2-thienyl)-1,3-thiazol-5-yl]methyl}-2-thia-1,8-diazaspiro[4.5]dec-3-ene 2,2-dioxide] | 5.6 µM | 15.3 µM |
| C[C@H]1C[C@]2(CCN1Cc1ccc(O)c(C3CCC3)c1)C(=O)CS(=O)(=O)N2c1cccc(F)c1 [Example 84, (5R,7S)-8-(3-cyclobutyl-4-hydroxybenzyl)-1-(3-fluorophenyl)-7-methyl-2-thia-1,8-diazaspiro[4.5]decan-4-one 2,2-dioxide] | – | 0.337 µM |
| C[C@H]1C[C@@]2(C=CS(=O)(=O)N2c2cccc(F)c2)CCN1Cc1ccc(O)c(OC2CC2)c1 [Example 13, 2-(cyclopropyloxy)-4-{[(5R,7S)-1-(3-fluorophenyl)-7-methyl-2,2-dioxido-2-thia-1,8-diazaspiro[4.5]dec-3-en-8-yl]methyl}phenol, hydrochloride salt] | 0.0184 µM | – |
| C[C@H]1C[C@]2(CCN1Cc1ccc(O)c(C3CCCO3)c1)CCS(=O)(=O)N2c1cccc(F)c1 (single isomer, unassigned) [Example 47] | 0.0471 µM | 0.249 µM |

Reference: US20130150376A1, “Novel Sultam Compounds” (PFIZER INC., priority 2010, published 2013)
